Measured values: patent US20250011316A1, “PEROXIREDOXIN 3 INHIBITORS AND METHODS OF USE FOR TREATING CANCER” (Wake Forest University Health Sciences, priority 2022, published 2025)
≈ marks a conversion by molar mass, not a printed value.

Key:
purified human PRX3 = target: T1, purified human PRX3 (Homo sapiens, UniProt P30048); test: Biochemical PRX3 Inhibition Assay (non-reducible crosslink by SDS PAGE + single adduct by MALDI-TOF MS); details: 100 μM PRX3 with TRX2/thioredoxin reductase/NADPH system and hydrogen peroxide, 1-2 hr at 37° C.
T1 construct: made in house
T1 sequence (P30048 62-256): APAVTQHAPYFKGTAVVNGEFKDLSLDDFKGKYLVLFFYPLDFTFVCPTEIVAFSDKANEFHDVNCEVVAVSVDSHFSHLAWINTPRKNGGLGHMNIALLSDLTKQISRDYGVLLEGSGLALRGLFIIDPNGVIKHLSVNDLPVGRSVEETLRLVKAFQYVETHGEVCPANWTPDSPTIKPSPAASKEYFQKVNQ
Description: The compounds described herein generally react with two essential cysteine residues in the mitochondrial peroxidase PRX3, leading to the formation of a non-reducible, covalent crosslink of two PRX3 monomers. This crosslink inactivates PRX3. Increased PRX3 crosslink is associated with mitochondrial stress, increased cell death in cell models of malignant mesothelioma and is associated with decreased tumor volume in a mouse model. Cunniff et al. (2015) PloS one 10, e0127310.
(§1) To test the activity of compounds, two complimentary assays were used as described below. The Biochemical PRX3 Inhibition Assay tests the ability of each compound to crosslink PRX3 in a simple, in vitro system. In the Cellular Activity Assay, we are testing the ability of compounds to kill SK—OV-3 ovarian cancer cells.
This assay tests the ability of each compound to form a covalent adduct with PRX3. The assay is performed as described in Nelson et al. (2021) Antioxidants (Basel) 10, 150; and Cunniff et al. (2015) PloS one 10, e0127310, and follows the appearance of non-reducible PRX3 crosslinks by SDS PAGE gel electrophoresis and follows the appearance of single PRX3 adducts by mass spectrometry. For this assay, purified human PRX3, hydrogen peroxide (the PRX3 substrate) and all the components required to enable PRX3 to catalytically cycle (thioredoxin-thioredoxin reductase-NAPDH system) are included (details below).
The biochemical PRX3 Inhibition assay contains 100 μM PRX3, 50 μM human TRX2, 0.5 μM mouse thioredoxin reductase, and a NADPH regenerating system composed of 3.2 mM glucose 6-phosphate, 3.2 U/ml glucose 6-phosphate dehydrogenase and 0.4 mM NADPH. Samples are incubated for 1-2 hr at 37° C. with either 0.2 mM TS (positive control), compounds or an equivalent volume of DMSO (negative control). During this incubation, hydrogen peroxide is added to induce turnover of PRX3. Reactions are stopped by the addition of a buffer containing 100 mM dithiothreitol (to break disulfide bonds) and SDS (detergent to denature proteins). NADPH, Glucose 6-Phosphate, and glucose 6-phosphate dehydrogenase were purchased from Sigma Aldrich. PRX3, thioredoxin, and thioredoxin reductase were all purified to >98% purity in the Lowther laboratory according to protocols referenced in Nelson et al. (2021) Antioxidants (Basel) 10, 150; and Cunniff et al. (2015) PloS one 10, e0127310.
To measure the amount of PRX3 crosslink, proteins in the reaction were separated by SDS-polyacrylamide gel electrophoresis and stained for total protein using GelCode Blue (Life Technologies). The amount of unmodified PRX3 and TS-PRX3 crosslink was measured by densiometric analysis of the signal for the PRX3 band running at the MW of a PRX3 crosslink (˜46 kDa) compared to the PRX3 signal at the MW of the un-modified PRX3 (−23 kD).
To measure covalent adduct formation on a single PRX3 monomer, each reaction was exchanged into a mass spectrometry compatible buffer containing 40 mM ammonium citrate, pH 8.3 made in HPLC water. Sample was mixed 1:1 with a matrix solution containing 30 mg/mL sinapinic acid in 70% (vol/vol) acetonitrile, 0.2% formic acid and spotted to onto the sample plate. PRX3 mass was measured by MALDI-TOF MS analysis on a Bruker Daltonics MALDI-TOF MS spectrometer. Spectra were analyzed in FLEXAnalysis Software. The intensity of the reduced PRX3 peak (SH) and intensity of the analog adduct peak was determined and corrected for background signal at the adduct peak in the DMSO control. The fraction of single analog adduct in the monomer peak was determined by dividing the intensity of the adduct peak by the summed intensity of the SH and adduct peaks.

Solubility Assay (HPLC) = assay type: physicochemical; details: HEPES/NaCl buffer, aqueous with cosolvent or surfactant or cyclodextrin, kinetic from dmso stock; 20 mM HEPES, 100 mM NaCl, pH 7.5, 18-24 hours at ambient temperature; read-out: Solubility
Description: A 20 mM stock solution was made for each compound in DMSO. To measure solubility, 0.03-0.05 mL of the stock was added to 0.27 mL 20 mM HEPES, 100 mM NaCl, pH 7.5. The solution was mixed and rotated 18-24 hours at ambient temperature. The next day, solutions were centrifuged for 10 min at 20,000×g at […] to remove insoluble, solid material. Next, 100 μL of the supernatant containing the soluble compound was added to 900 μL DMSO and High Performance Liquid Chromatography was performed as described in Table 1 and either HIPLC gradient 1 (Table 2) or HIPLC gradient 2 (Table 3). For each analog, a 200 μM standard and a 20 μM standard were prepared and run in parallel (standards were dissolved completely in […]). The amount ofLcompound in the experimental sample was calculated by comparing the area under the curve for compound peak to the area for the closest standard and correcting for dilution.

[1] = tested on: human SK—OV-3 ovarian cancer cells; test: Cellular Activity Assay (cytotoxicity, crystal violet); assay type: cell-based; details: Homo sapiens, SK—OV-3 cells, treated for 48 hr, 0.1-100 μM, crystal violet absorbance at 540 nm
Description: as §1
The Cellular Activity Assay measures the EC50 of each compound in human SK—OV-3 ovarian cancer cells TS to be taken into the cell, transported to the mitochondria, and crosslink PRX3.
The cytotoxicity of compounds was measured as described in Nelson et al. (2021) Antioxidants (Basel) 10, 150; Cunniff et al. (2015) PloS one 10, e0127310; and Newick et al. (2012) PloS one 7, e39404. SK—OV-3 is an adherent, epithelial, adenocarcinoma cell line obtained from ATCC (ref #: HTB-77). SK—OV-3 cells are resistant to the commonly used chemotherapeutics, cis-platinum and doxorubicin. For this […], SK—OV-3 cells were plated in a 96-well plate. After 24 h recovery, the cells were treated for 48 hr with multiple concentrations of each compound ranging from 0.1-100 μM.
Cells were washed with PBS to remove dead cells and the remaining live cells were fixed with 3.0% formaldehyde and stained with 0.1% crystal violet. The amount of crystal violet was determined by reading the absorbance at 540 nm (crystal violet dye dissolved in 100% methanol) using a plate reader. The signal for crystal violet dye is proportional to the biomass of remaining live cells. GraphPad Prism9 software was used to calculate the effective inhibitory concentration (EC50) of test compounds. Results for each compound, are normalized to the amount of cells in control wells treated with the equivalent concentration of DMSO (negative control). TS or Compound 4 were included in each set of assays as a positive control.

Structure (SMILES)	PRX3 Inhibition (Crosslink + Mono-adduct) (purified human PRX3)	solubility (Solubility Assay (HPLC))	EC50 ([1]; SK-OV-3, 48 h)	EC50 [1]
C=C(NC(=O)c1csc(N2CCC(NC(=O)C3COCCO3)CC2)n1)C(=O)NC(=C)C(=O)OC (centres unmarked) [Compound 58, Methyl 2-(2-(2-(4-(1,4-dioxane-2-carboxamido)piperidin-1-yl)thiazole-4-carboxamido)acrylamido)acrylate]	+++ (>90%)	100 to 1000 µM (≈ 49.4 to 494 µg/mL)	–	–
C=C(NC(=O)c1csc(N2CCN(C(=O)C3CCOCC3)CC2)n1)C(=O)NC(=C)C(=O)OC [Compound 59, Methyl 2-(2-(2-(4-(tetrahydro-2H-pyran-4-carbonyl)piperazin-1-yl)thiazole-4-carboxamido)acrylamido)acrylate]	+++ (>90%)	100 to 1000 µM (≈ 47.8 to 478 µg/mL)	–	–
C=C(NC(=O)c1csc(-c2ccc(CNC(=O)OCCOCCNC(=O)OC(C)(C)C)cc2)n1)C(=O)NC(=C)C(=O)OC [Compound 49, Methyl 2-(2-(2-(4-(13,13-dimethyl-3,11-dioxo-4,7,12-trioxa-2,10-diazatetradecyl)phenyl)thiazole-4-carboxamido)acrylamido)acrylate]	+++ (>90%)	< 100 µM	1 to 10 µM	–
C=C(NC(=O)c1csc(N2CCC(NC(=O)COC)CC2)n1)C(=O)NC(=C)C(=O)OC [Compound 55, Methyl 2-(2-(2-(4-(2-methoxyacetamido)piperidin-1-yl)thiazole-4-carboxamido)acrylamido)acrylate]	++ (50-90%)	< 100 µM	10 to 25 µM	–
C=C(NC(=O)c1csc(N2CCC[C@H](NC(=O)C3CCOCC3)C2)n1)C(=O)NC(=C)C(=O)OC [Compound 54, methyl (S)-2-(2-(2-(3-(tetrahydro-2H-pyran-4-carboxamido)piperidin-1-yl)thiazole-4-carboxamido)acrylamido)acrylate]	++ (50-90%)	< 100 µM	–	25 to 100 µM
C=C(NC(=O)c1csc(N2CCC(NC(=O)CC3CCOCC3)CC2)n1)C(=O)NC(=C)C(=O)OC [Compound 51, Methyl 2-(2-(2-(4-(2-(tetrahydro-2H-pyran-4-yl)acetamido)piperidin-1-yl)thiazole-4-carboxamido)acrylamido)acrylate]	+++ (>90%)	< 100 µM	–	–
C=C(NC(=O)c1csc(N2C[C@@H](C)N(C(=O)OC(C)(C)C)[C@@H](C)C2)n1)C(=O)NC(=C)C(=O)OC [Compound 56, Tert-butyl (cis)-4-(4-((3-((3-methoxy-3-oxoprop-1-en-2-yl)amino)-3-oxoprop-1-en-2-yl)carbamoyl)thiazol-2-yl)-2,6-dimethylpiperazine-1-carboxylate]	++ (50-90%)	< 100 µM	–	1 to 10 µM
C=C(NC(=O)c1csc(N2CCC(CNC(=O)COCCOC)CC2)n1)C(=O)NC(=C)C(=O)OC [Compound 41, Methyl 2-(2-(2-(4-((2-(2-methoxyethoxy)acetamido)methyl)piperidin-1-yl)thiazole-4-carboxamido)acrylamido)acrylate]	+++ (>90%)	> 1000 µM	–	10 to 25 µM
C=C(NC(=O)c1csc(N2CCN(C(=O)OC(C)(C)C)[C@@H](C)C2)n1)C(=O)NC(=C)C(=O)OC [Compound 57, Tert-butyl (S)-4-(4-((3-((3-methoxy-3-oxoprop-1-en-2-yl)amino)-3-oxoprop-1-en-2-yl)carbamoyl)thiazol-2-yl)-2-methylpiperazine-1-carboxylate]	+++ (>90%)	< 100 µM	–	1 to 10 µM
C=C(NC(=O)c1csc(N2CCN(C(=O)OC(C)(C)C)[C@H](C)C2)n1)C(=O)NC(=C)C(=O)OC [Compound 60, Tert-butyl (R)-4-(4-((3-((3-methoxy-3-oxoprop-1-en-2-yl)amino)-3-oxoprop-1-en-2-yl)carbamoyl)thiazol-2-yl)-2-methylpiperazine-1-carboxylate]	+++ (>90%)	< 100 µM	–	–
